This passage reports IC50 and EC50 results from US20250368627A1, “PYRAZOLESULFONAMIDES AS ANTITUMOR AGENTS” (Peloton Therapeutics, Inc., a fully owned subsidiary of …, priority 2019, published 2025).

By IC50 is commonly meant the concentration that inhibits the measured activity by half. For orientation: EC50 means the midpoint of the concentration-response curve.

Bounds are passed on as bounds.

The target of assay [1] is T1, DDB1DB/DCAF15 and RBM39 R1R2 complex (Homo sapiens, UniProt Q14498+Q66K64).
T1 construct: Amino acids 150 to 331 of RBM39 were cloned into pGEX4T3; GST (from vector pGEX4T3); TEV cleavage site (N); made in house; host or cells: DDB1DB/His-DCAF15: baculovirus/Sf9 co-expression; RBM39 R1R2: E. coli (pGEX4T3)
T1 sequence (Q66K64 whole entry, the tested form may be a part): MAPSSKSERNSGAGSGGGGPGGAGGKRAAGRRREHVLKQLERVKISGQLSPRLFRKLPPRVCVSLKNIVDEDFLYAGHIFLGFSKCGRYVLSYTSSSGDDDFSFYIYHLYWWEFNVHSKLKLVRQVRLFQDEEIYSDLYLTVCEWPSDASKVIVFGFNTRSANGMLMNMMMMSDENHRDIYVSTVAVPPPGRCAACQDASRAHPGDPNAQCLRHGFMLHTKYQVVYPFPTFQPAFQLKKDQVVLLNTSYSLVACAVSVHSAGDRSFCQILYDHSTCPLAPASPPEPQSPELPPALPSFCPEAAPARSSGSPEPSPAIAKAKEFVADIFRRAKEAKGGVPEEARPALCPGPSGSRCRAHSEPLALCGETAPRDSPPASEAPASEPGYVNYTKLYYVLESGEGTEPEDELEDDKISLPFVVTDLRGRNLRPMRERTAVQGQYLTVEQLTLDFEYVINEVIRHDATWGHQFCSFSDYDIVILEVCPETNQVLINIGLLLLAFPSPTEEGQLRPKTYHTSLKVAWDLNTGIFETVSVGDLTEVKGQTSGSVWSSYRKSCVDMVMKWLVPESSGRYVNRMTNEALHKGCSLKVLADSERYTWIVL
T1 sequence (Q14498 150-331): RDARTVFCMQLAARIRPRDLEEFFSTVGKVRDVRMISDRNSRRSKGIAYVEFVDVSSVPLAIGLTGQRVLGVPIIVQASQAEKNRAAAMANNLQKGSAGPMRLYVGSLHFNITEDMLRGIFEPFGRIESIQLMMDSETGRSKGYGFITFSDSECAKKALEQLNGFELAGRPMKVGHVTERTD
T1 sequence (Q16531 with tags, fused parts or gaps DEL396-708 partner): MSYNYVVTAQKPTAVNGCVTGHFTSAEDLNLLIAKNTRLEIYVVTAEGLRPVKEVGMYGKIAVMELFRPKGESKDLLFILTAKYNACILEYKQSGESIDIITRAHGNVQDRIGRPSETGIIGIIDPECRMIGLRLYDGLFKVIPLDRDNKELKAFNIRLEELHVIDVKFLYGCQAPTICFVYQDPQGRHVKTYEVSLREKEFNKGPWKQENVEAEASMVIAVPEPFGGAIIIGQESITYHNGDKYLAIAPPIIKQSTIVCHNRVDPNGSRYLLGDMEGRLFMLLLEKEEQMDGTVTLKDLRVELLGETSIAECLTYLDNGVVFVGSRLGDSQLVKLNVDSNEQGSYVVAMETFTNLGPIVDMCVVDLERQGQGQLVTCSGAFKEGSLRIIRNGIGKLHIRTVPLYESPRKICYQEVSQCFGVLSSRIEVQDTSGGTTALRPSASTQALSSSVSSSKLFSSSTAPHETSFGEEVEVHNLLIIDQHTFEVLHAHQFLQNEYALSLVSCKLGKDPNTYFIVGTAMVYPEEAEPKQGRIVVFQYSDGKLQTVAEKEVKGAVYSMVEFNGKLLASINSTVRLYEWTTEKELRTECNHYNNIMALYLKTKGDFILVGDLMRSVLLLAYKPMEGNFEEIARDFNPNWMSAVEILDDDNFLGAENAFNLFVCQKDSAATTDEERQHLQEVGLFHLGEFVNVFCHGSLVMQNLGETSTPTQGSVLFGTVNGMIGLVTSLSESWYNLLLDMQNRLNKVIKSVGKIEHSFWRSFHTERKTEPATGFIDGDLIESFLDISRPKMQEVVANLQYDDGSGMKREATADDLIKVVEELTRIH
The assay can be described thus: DCAF15 RBM39 Complex Formation Assay (FRET). Format: binding. The settings on record: FRET ratio Em 665/Em 615, incubated overnight at 4° C. In a few lines:
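Ternary complex formation read by TR-FRET (Em 665/615, excitation 340 nm) after overnight incubation at 4° C of 20 nM baculovirus DDB1DB/His-DCAF15 and 50 nM E. coli RBM39 RRM1-RRM2 FLAG fragment with 14-point, 3-fold compound dilutions from 1 μM; EC50 from 4-parameter fit.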

Assay [2] deals with HCT116 human colorectal carcinoma cells. The assay can be described thus: CellTiter-Glo Luminescent Cell Viability Assay. It counts as cell-based. The settings on record: HCT-116, 72 h, 3 days. The gist of the method:
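HCT116 cells were exposed for 3 days to compound in triplicate at final concentrations of 5 to 0.0002 […] (1:3 dilutions). Viability was read by CellTiter-Glo luminescence, and IC50 values were calculated.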
In general terms: Cellular ATP, detected with luciferase, serves as a proxy for viable cell number.

For the molecule `Cc1ccc(NS(=O)(=O)c2cnn(CCO)c2)c2[nH]cc(C#N)c12` [Compound 25, N-(3-cyano-4-methyl-1H-indol-7-yl)-1-(2-hydroxyethyl)-1H-pyrazole-4-sulfonamide], in assay [1], the IC50 is less than 250 nM. Besides, the half-maximal effective concentration (EC50) in assay [2] was 250 to 1000 nM.
For the molecule `Cn1ncc(S(=O)(=O)Nc2ccc(Cl)c3c(C#N)n[nH]c23)c1N` [Compound 307, 5-amino-N-(4-chloro-3-cyano-1H-indazol-7-yl)-1-methyl-pyrazole-4-sulfonamide], the IC50 in assay [1] was less than 250 nM. In addition, the EC50 in assay [2] is greater than 1000 nM.
With `Cc1ccc(NS(=O)(=O)c2cnn(CF)c2)c2[nH]cc(C#N)c12` [Compound 70, N-(3-cyano-4-methyl-1H-indol-7-yl)-1-(fluoromethyl)pyrazole-4-sulfonamide], the IC50 in assay [1] was less than 250 nM. For the same molecule, the EC50 in assay [2] was less than 250 nM.
`N#Cc1c[nH]c2c(NS(=O)(=O)c3cnn([C@@H](CO)C(F)F)c3)ccc(Cl)c12` [Compound 226, N-(4-chloro-3-cyano-1H-indol-7-yl)-1-[(1S)-2,2-difluoro-1-(hydroxymethyl)ethyl]pyrazole-4-sulfonamide]: in assay [1], the IC50 is less than 250 nM. Further, the 50% effective concentration (EC50) in assay [2] is 250 to 1000 nM.
As to `Cn1ncc(S(=O)(=O)Nc2ccc(Cl)c3c(C#N)c[nH]c23)c1C(F)F` [Compound 150, N-(4-chloro-3-cyano-1H-indol-7-yl)-5-(difluoromethyl)-1-methyl-pyrazole-4-sulfonamide], the IC50 in assay [1] was less than 250 nM. The EC50 in assay [2] lay within 250 to 1000 nM.
Turning to `Cc1ccc(NS(=O)(=O)c2cnn(C3(C)COC3)c2F)c2[nH]cc(C#N)c12` [Compound 128, N-(3-cyano-4-methyl-1H-indol-7-yl)-5-fluoro-1-(3-methyloxetan-3-yl)pyrazole-4-sulfonamide], in assay [1], the IC50 was less than 250 nM. Also, the EC50 in assay [2] is less than 250 nM.
With `CC1(n2cc(S(=O)(=O)Nc3ccc(Cl)c4c(Cl)c[nH]c34)cn2)COC1` [Compound 115, N-(3,4-Dichloro-1H-indol-7-yl)-1-(3-methyloxetan-3-yl)pyrazole-4-sulfonamide], the IC50 in assay [1] is less than 250 nM. Moreover, the EC50 in assay [2] was less than 250 nM.
For the molecule `Cc1ccc(NS(=O)(=O)c2cnn(C)c2N)c2[nH]cc(C#N)c12` [Compound 161, 5-amino-N-(3-cyano-4-methyl-1H-indol-7-yl)-1-methyl-pyrazole-4-sulfonamide], the IC50 in assay [1] was less than 250 nM. In addition, the EC50 in assay [2] is less than 250 nM.
`O=S(=O)(Nc1cccc2c(Cl)c[nH]c12)c1cnn(C2COC2)c1` [Compound 40, N-(3-chloro-1H-indol-7-yl)-1-(oxetan-3-yl)pyrazole-4-sulfonamide]: in assay [1], the IC50 was less than 250 nM. In assay [2], the EC50 lay within 250 to 1000 nM.
For `O=S(=O)(Nc1cccc2c(Cl)c[nH]c12)c1cnn(CC(F)F)c1` [Compound 7, N-(3-chloro-1H-indol-7-yl)-1-(2,2-difluoroethyl)pyrazole-4-sulfonamide], the IC50 in assay [1] is less than 250 nM. The EC50 in assay [2] lay in the range of 250 to 1000 nM.
In the case of `Cc1ccc(NS(=O)(=O)c2cnn([C@@H](C)[C@@H](C)O)c2)c2[nH]cc(C#N)c12` [Compound 234, N-(3-cyano-4-methyl-1H-indol-7-yl)-1-[(1S,2R)-2-hydroxy-1-methyl-propyl]pyrazole-4-sulfonamide], the IC50 in assay [1] was less than 250 nM. Also, the EC50 in assay [2] is less than 250 nM.
`Cc1ccc(NS(=O)(=O)c2cnn(C)c2CCO)c2[nH]cc(C#N)c12` [Compound 239, N-(3-cyano-4-methyl-1H-indol-7-yl)-5-(2-hydroxyethyl)-1-methyl-pyrazole-4-sulfonamide]: in assay [1], the half-inhibitory concentration (IC50) was less than 250 nM. For the same molecule, the EC50 in assay [2] is greater than 1000 nM.
Turning to `CC(C)(C)OC(=O)N1CC(n2cc(S(=O)(=O)Nc3cccc4c(Cl)c[nH]c34)cn2)C1` [Compound 12, tert-butyl 3-[4-[(3-chloro-1H-indol-7-yl)sulfamoyl]pyrazol-1-yl]azetidine-1-carboxylate], in assay [1], the IC50 is less than 250 nM. Further, in assay [2], the EC50 is 250 to 1000 nM.
`O=S(=O)(Nc1cccc2c(Cl)c[nH]c12)c1cnn(-c2ccc(C(F)(F)F)cn2)c1` [Compound 30, N-(3-chloro-1H-indol-7-yl)-1-[5-(trifluoromethyl)-2-pyridyl]pyrazole-4-sulfonamide]: the 50% inhibitory concentration (IC50) in assay [1] was greater than 1000 nM. Besides, the EC50 in assay [2] was greater than 1000 nM.
Turning to `N#Cc1c[nH]c2c(NS(=O)(=O)c3cnn([C@H]4C[C@H](O)C4)c3)ccc(Cl)c12` [Compound 175, N-(4-chloro-3-cyano-1H-indol-7-yl)-1-(3-hydroxycyclobutyl)pyrazole-4-sulfonamide], the IC50 in assay [1] is less than 250 nM. Besides, the EC50 in assay [2] is 250 to 1000 nM.
For the molecule `C[C@H](O)[C@@H](C)n1cc(S(=O)(=O)Nc2ccc(Cl)c3c(C#N)c[nH]c23)cn1` [Compound 275, N-(4-chloro-3-cyano-1H-indol-7-yl)-1-[(1R,2S)-2-hydroxy-1-methyl-propyl]pyrazole-4-sulfonamide], the IC50 in assay [1] is less than 250 nM. The EC50 in assay [2] lay in the range of 250 to 1000 nM.
On to `Cc1ccc(NS(=O)(=O)c2cnn(CF)c2N)c2[nH]cc(C#N)c12` [Compound 308, 5-amino-N-(3-cyano-4-methyl-1H-indol-7-yl)-1-(fluoromethyl)pyrazole-4-sulfonamide], for which the 50% inhibitory concentration (IC50) in assay [1] is less than 250 nM. For the same molecule, the EC50 in assay [2] was 250 to 1000 nM.
For `NC(=O)Cn1cc(S(=O)(=O)Nc2cccc3c(Cl)c[nH]c23)cn1` [Compound 16, 2-[4-[(3-chloro-1H-indol-7-yl)sulfamoyl]pyrazol-1-yl]acetamide], the IC50 in assay [1] is less than 250 nM. Moreover, the EC50 in assay [2] was in the range of 250 to 1000 nM.
With `CCn1cc(S(=O)(=O)Nc2ccc(C)c3c(C#N)c[nH]c23)cn1` [Compound 68, N-(3-cyano-4-methyl-1H-indol-7-yl)-1-ethyl-pyrazole-4-sulfonamide], the IC50 in assay [1] was less than 250 nM. Besides, in assay [2], the EC50 was less than 250 nM.
Take `N#CCC1(n2cc(S(=O)(=O)Nc3ccc(Cl)c4c(C#N)c[nH]c34)cn2)COC1` [Compound 158, N-(4-chloro-3-cyano-1H-indol-7-yl)-1-[3-(cyanomethyl)oxetan-3-yl]pyrazole-4-sulfonamide]: the IC50 in assay [1] is less than 250 nM. Besides, in assay [2], the EC50 lay within 250 to 1000 nM.
On to `Cc1ccc(NS(=O)(=O)c2cnn(C)c2)c2[nH]ccc12` [Compound 74, 1-methyl-N-(4-methyl-1H-indol-7-yl)pyrazole-4-sulfonamide], for which, in assay [1], the IC50 was greater than 1000 nM. The EC50 in assay [2] was greater than 1000 nM.
As for `NC(=O)Cn1cc(S(=O)(=O)n2cc(S(=O)(=O)Nc3cccc4c(Cl)c[nH]c34)cn2)cn1` [Compound 17, 2-[4-[4-[(3-chloro-1H-indol-7-yl)sulfamoyl]pyrazol-1-yl]sulfonylpyrazol-1-yl]acetamide], the IC50 in assay [1] was less than 250 nM. In addition, the EC50 in assay [2] was in the range of 250 to 1000 nM.
Turning to `O=S(=O)(Nc1cccc2c(Cl)c[nH]c12)c1cnn(CC2CNC2)c1` [Compound 43, 1-(azetidin-3-ylmethyl)-N-(3-chloro-1H-indol-7-yl)pyrazole-4-sulfonamide], the IC50 in assay [1] was less than 250 nM. The EC50 in assay [2] was greater than 1000 nM.
`Cc1ccc(NS(=O)(=O)c2cnn(CCC(C)O)c2)c2[nH]cc(C#N)c12` (stereo not shown) [Compound 270, N-(3-cyano-4-methyl-1H-indol-7-yl)-1-(3-hydroxybutyl)pyrazole-4-sulfonamide]: in assay [1], the IC50 was less than 250 nM. The EC50 in assay [2] lay in the range of 250 to 1000 nM.
`Cc1ccc(NS(=O)(=O)c2cnn(CF)c2)c2[nH]nc(C#N)c12` [Compound 305, N-(3-cyano-4-methyl-1H-indazol-7-yl)-1-(fluoromethyl)pyrazole-4-sulfonamide]: the IC50 in assay [1] is less than 250 nM. Moreover, the concentration giving a half-maximal response (EC50) in assay [2] was 250 to 1000 nM.
As for `O=S(=O)(Nc1cccc2c(Cl)c[nH]c12)c1cnn(CCCF)c1` [Compound 57, N-(3-chloro-1H-indol-7-yl)-1-(3-fluoropropyl)pyrazole-4-sulfonamide], in assay [1], the IC50 was less than 250 nM. In addition, the EC50 in assay [2] is greater than 1000 nM.
Regarding `CC(CC(C)(C)O)n1cc(S(=O)(=O)Nc2ccc(Cl)c3c(C#N)c[nH]c23)cn1` (stereo not shown) [Compound 243, N-(4-chloro-3-cyano-1H-indol-7-yl)-1-(3-hydroxy-1,3-dimethyl-butyl)pyrazole-4-sulfonamide], the IC50 in assay [1] was less than 250 nM. Moreover, in assay [2], the EC50 lay within 250 to 1000 nM.
In the case of `CC(F)(CO)n1cc(S(=O)(=O)Nc2ccc(F)c3c(C#N)c[nH]c23)cn1` (stereo not shown) [Compound 294, N-(3-cyano-4-fluoro-1H-indol-7-yl)-1-(1-fluoro-2-hydroxy-1-methyl-ethyl)pyrazole-4-sulfonamide], the IC50 in assay [1] was less than 250 nM. Further, the EC50 in assay [2] was greater than 1000 nM.
The like results for `N#Cc1c[nH]c2c(NS(=O)(=O)c3cn[nH]c3)ccc(Cl)c12` [Compound 121, N-(4-chloro-3-cyano-1H-indol-7-yl)-1H-pyrazole-4-sulfonamide] were, in that order, less than 250 nM and 250 to 1000 nM.
In the case of `CCCn1cc(S(=O)(=O)Nc2ccc(C)c3c(C#N)c[nH]c23)cn1` [Compound 90, N-(3-cyano-4-methyl-1H-indol-7-yl)-1-propyl-pyrazole-4-sulfonamide], in assay [1], the IC50 is less than 250 nM. The EC50 in assay [2] is less than 250 nM.
In the case of `N#Cc1c[nH]c2c(NS(=O)(=O)c3cnn(CC4(C#N)CC4)c3)ccc(Cl)c12` [Compound 183, N-(4-chloro-3-cyano-1H-indol-7-yl)-1-[(1-cyanocyclopropyl)methyl]pyrazole-4-sulfonamide], the IC50 in assay [1] is less than 250 nM. The half-maximal effective concentration (EC50) in assay [2] lay in the range of 250 to 1000 nM.
As for `O=S(=O)(Nc1cccc2c(Cl)c[nH]c12)c1cnn([C@H]2C[C@@H](O)C2)c1` [Compound 194, N-(3-chloro-1H-indol-7-yl)-1-(3-hydroxycyclobutyl)pyrazole-4-sulfonamide], the 50% inhibitory concentration (IC50) in assay [1] was less than 250 nM. In addition, the half-maximal effective concentration (EC50) in assay [2] was greater than 1000 nM.
